The values that follow come from patent US5073641A, “Prodrug derivatives of carboxylic acid drugs” (priority 1986, dated 1991).

The nature of series [1]: Hydrolysis of ester prodrugs in human plasma solutions (HPLC). Conditions: for half-life: pH 7.4; for kinetics (order) of hydrolysis in human plasma: 80% human plasma at 37° C., initial concentration about 10^-4 M. The procedure: Solutions of various derivatives of this invention in aqueous buffer solutions or 50-80% human plasma solutions (pH 7.4) were kept at 37° C. The initial concentration of the derivatives was in the range 3×10^-4 -10^-5 M. At various times an aliquot of the solutions was withdrawn and analyzed by HPLC for remaining derivative as well as for parent acid. For the plasma solutions the aliquot withdrawn was deproteinized with methanol, ethanol or acetonitrile and after centrifugation, the clear supernatant was injected on HPLC.
An HPLC method was used for the determination of the ester derivatives and their parent acids. In this method a reversed-phase LiChrosorb RP-8 column (250×4 mm) was eluted at ambient temperature with mixtures of methanol and 0.01M acetate buffer pH 5.0, methanol and 0.01M phosphate buffer pH 4.5 or methanol and 0.02M phosphate buffer pH 3.5. the composition of the eluant was adjusted for each compound in order to provide an appropriate retention time and separation of ester and the corresponding acid. The flow-rate was 0.6-1.6 ml/min and the column effluent was monitored spectrophotometrically at an appropriate wavelength. Quantitation of the compounds was done by measurement of the peak heights in relation to those of standards chromatographed under the same conditions.

The nature of series [2]: Solubility in water or aqueous solutions. Conditions: for solubility: water.
The nature of series [3]: Oral bioavailability study in rabbits (plasma concentrations). The series is classed as in vivo.
Test in series [4]: not given
The source holds these as a separate data set.

In brackets after ≈: the same amount, converted by molar mass. Structures can show the parent of a compound that is named as a salt.

A word on the half-life: it is the time in which the quantity being followed falls by half. As for `CC(C)Cc1ccc(C(C)C(=O)OCC(=O)N(C)C)cc1` (stereo not shown) [Example 54], the half-life in series [1] (plasma) came to 8.6 min. Consider `COC(=O)c1ccc(O)cc1` [4-Hydroxybenzoic acid methyl ester, reference compound], for which, in series [1] (80% plasma), the half-life is greater than 3000 min. A word on the solubility: it is the dissolved amount per volume that the medium holds. Read a low solubility as little dissolved substance. For the molecule `NC(=O)[C@@H]1CCCN1C(=O)COC(=O)c1ccccc1`, the “log P (partition coefficient between octanol and water)” value (“log P” below) was found to be 0.20. In addition, the half-life in series [1] (50% plasma) is 2.3 min. For the same molecule, the solubility in series [2] came out at 1500 µg/mL (≈ 5.43 mM). For the molecule `CCN(CC)C(=O)COC(=O)C(C)c1cccc(C(=O)c2ccccc2)c1` (stereo not shown) [Example 56], the half-life in series [1] (80% plasma) and in series [1] (plasma) was 0.5 min throughout.

With `O=C(OCC(=O)N1CCCCCC1)c1ccccc1`, the half-life in series [1] (50% plasma) came to 1 min. The solubility in series [2] turned out to be 750 µg/mL (≈ 2.87 mM).

In the case of `O=C(OCC(=O)N1CCCC1=O)c1ccccc1`, the “log P” value was 1.83. Further, in series [1] (50% plasma), the half-life was 18 min. The molecule also yielded a solubility in series [2] of 490 µg/mL (≈ 1.98 mM). Consider `COc1ccc2cc([C@H](C)C(=O)OCC(=O)N(C)C)ccc2c1` [Example 52], for which the half-life in series [1] (plasma) turned out to be 1.5 min. Consider `O=C(OCC(=O)N1CCOCC1)c1ccccc1`, for which the “log P” value stood at 0.90. Further, the half-life in series [1] (50% plasma) is 4.9 min. In series [2], this molecule gave a solubility of 4200 µg/mL (≈ 16.8 mM).

On to `COC(=O)c1ccccc1Nc1cccc(Cl)c1C` [Tolfenamic acid methyl ester, reference compound], for which the half-life in series [1] (80% plasma) is 6000 min. Regarding `CC1CCCC(C)N1C(=O)COC(=O)c1ccccc1` (stereo not shown), in series [1] (50% plasma), the half-life was determined as 0.4 min. The molecule further displayed a solubility in series [2] of 150 µg/mL (≈ 0.545 mM).

Regarding `CCN(CC)C(=O)COC(=O)c1ccccc1O` [Example 80], the half-life in series [1] (80% plasma) and in series [1] (plasma) was 0.08 min in each case. Consider `CCN(CC)C(=O)COC(=O)C(C)c1ccc(-c2ccccc2)c(F)c1` (stereo not shown) [Example 59], for which the half-life in series [1] (plasma) is 4.7 min. Take `CCN(CC)C(=O)COC(=O)CCC(=O)c1ccc(-c2ccccc2)cc1` [Example 61]: the half-life in series [1] (80% plasma) and in series [1] (plasma) was 3.8 min each time. Turning to `COc1ccc2cc([C@H](C)C(=O)OCC(=O)N(CCO)CCO)ccc2c1` [Example 44, 2-[(+)-6-METHOXY-α-METHYL-2-NAPHTHALENEACETYLOXY]-N,N-(DI-β-HYDROXYETHYL)ACETAMIDE], in series [3], the “absorption following oral administration” value was “efficiently absorbed” and the “conversion of prodrug to naproxen in vivo” value was “rapidly converted back to naproxen in vivo”. Besides, the “plasma concentration of intact naproxen prodrug” value in series [3] (equivalent of 4.8 mg/kg naproxen) is less than 100 ng/mL. In addition, the “solubility in 0.01M HCl relative to parent naproxen” value in series [2] (0.01M HCl, versus naproxen) is reported as “more than 20 -fold”.

As to `CCN(CC)C(=O)COC(=O)CC1=C(C)/C(=C/c2ccc([S+](C)[O-])cc2)c2ccc(F)cc21` (stereo not shown) [Example 73], the half-life in series [1] (plasma) worked out at 26 min. `COC(=O)CCC(=O)c1ccc(-c2ccccc2)cc1` [Fenbufen methyl ester, reference compound]: in series [1] (80% plasma), the half-life is 282 min. As for `COc1ccc2c(c1)c(CC(=O)OCC(=O)N(CCO)CCO)c(C)n2C(=O)c1ccc(Cl)cc1` [Example 64], the half-life in series [1] (plasma) is 88 min. In the case of `CC(C(=O)OCC(=O)N(C)CC(N)=O)c1cccc(C(=O)c2ccccc2)c1` (stereo not shown) [Ketoprofen (R1=CH3, R2=CH2CONH2)], in series [1], the “kinetics (order) of hydrolysis in human plasma” value (shortened to “kinetics (order) of hydrolysis”) is recorded as “first-order kinetics”. Also, the half-life in series [1] (plasma) came out at 2.3 min. On to `CCN(CC)C(=O)COC(=O)c1cc(-c2ccc(F)cc2F)ccc1O` [Example 70], for which the half-life in series [1] (plasma) was 79 min. As for `COc1ccc2c(c1)c(CC(=O)OCC(=O)N(C)CCO)c(C)n2C(=O)c1ccc(Cl)cc1` [Example 63], the half-life in series [1] (plasma) turned out to be 140 min.

`O=C(OCC(=O)N(C1CCCCC1)C1CCCCC1)c1ccccc1` [Example 20]: the half-life in series [1] (50% plasma) came to 407 min. Regarding `COCCN(CCOC)C(=O)COC(=O)c1ccccc1` [Example 23b], the half-life in series [1] (50% plasma) came to 0.25 min. Regarding `CN(C)CCN(C)C(=O)COC(=O)c1ccccc1` [Example 23a], the “t1/2, half-life of hydrolysis in 50% human plasma” value in series [1] (50% human plasma (pH 7.4) at 37° C.) is 0.12 min. In series [2], this molecule returned a solubility greater than 100000 µg/mL.

Take `CN(C)C(=O)COC(=O)CCC(=O)c1ccc(-c2ccccc2)cc1` [Example 60]: the half-life in series [1] (plasma) was found to be 9.2 min. Still for that read-out and setting: next, `CN(CC(N)=O)C(=O)COC(=O)c1ccccc1O` [Example 37, 2-[2-HYDROXYBENZOYLOXY]-(N-METHYL-N-CARBAMOYLMETHYL)-ACETAMIDE]: 0.33 min; `CN1CCN(C(=O)COC(=O)c2ccccc2O)CC1` [Salicylic acid]: 22 min. As for `COC(=O)Cc1c(C)n(C(=O)c2ccc(Cl)cc2)c2ccc(OC)cc12` [Indomethacin methyl ester, reference compound], the half-life in series [1] (80% plasma) is 9000 min. As for `CN(C)C(=O)CCOC(=O)c1ccccc1` [Example 21], the half-life in series [1] (50% plasma) worked out at 5.6 min.

On to `CCN(CC)C(=O)COC(=O)Cc1ccc(C(=O)c2ccc(C)cc2)n1C` [Tolmetin (R1=C2H5, R2=C2H5)], for which the half-life in series [1] (80% plasma) and in series [1] (plasma) was 13.4 min in each case. In the case of `Cc1c(Cl)cccc1Nc1ccccc1C(=O)OCC(=O)N(C)C` [Example 65], the half-life in series [1] (plasma) was determined as 2.8 min. Molecule `COC(=O)[C@@H]1CCCN1C(=O)COC(=O)c1ccccc1` showed a half-life in series [1] (50% plasma) of 1.9 min. Take `Br.CCN(CC)C(=O)COC(=O)[C@@H](N)Cc1ccccc1` [Example 38]: in series [1], the “kinetics (order) of hydrolysis” value was “first-order kinetics”. For the molecule `CC(C)Cc1ccc(C(C)C(=O)OCC(=O)N(C)CC(N)=O)cc1` (stereo not drawn) [Example 41, 2-[α-METHYL-4-(2-METHYLPROPYL)BENZENEACETYLOXY]-(N-METHYL-N-CARBAMOYLMETHYL)ACETAMIDE], in series [1] (plasma), the half-life turned out to be 9.6 min. With `CCN(C)C(=O)COC(=O)c1ccccc1` [Example 9], the half-life in series [1] (50% plasma) was 0.1 min.

`O=C(OCC(=O)N1CCC1)c1ccccc1`: the half-life in series [1] (50% plasma) amounted to 0.83 min. The molecule also registered a solubility in series [2] of 5400 µg/mL (≈ 24.6 mM). The corresponding values for `CN(C)CC(=O)OCCN(C)C(=O)COC(=O)c1ccccc1` [R1=CH3, R2=CH2CH2OOCCH2N(CH3)2, n=1] are 0.08 min and greater than 200000 µg/mL. In the case of `CCN(CC)C(=O)COC(=O)[C@@H](C)c1ccc2cc(OC)ccc2c1` [Example 35, 2-[(+)-6-METHOXY-α-METHYL-2-NAPHTHALENEACETYLOXY]-N,N-[…]], in series [1], the “kinetics (order) of hydrolysis” value is reported as “first-order kinetics”. In the case of `O=C(OCC(=O)N1CCCCC1)c1ccccc1`, the “log P” value worked out at 1.95. Further, the half-life in series [1] (50% plasma) was 2.5 min. Further, in series [2], the solubility was 780 µg/mL (≈ 3.15 mM). With `CC(C(=O)OCC(=O)N(C)C)c1cccc(C(=O)c2ccccc2)c1` (stereo not shown) [Example 55], in series [1] (plasma), the half-life amounted to 1.1 min. In the case of `O=C(OCC(=O)N1CCCC1)c1ccccc1`, the half-life in series [1] (50% plasma) is 5.7 min. The solubility in series [2] stood at 6300 µg/mL (≈ 27 mM). Regarding `O=C(OCC(=O)N1CCC(O)CC1)c1ccccc1`, in series [1] (50% plasma), the half-life stood at 5.8 min. For the molecule `CCCCN(CCCC)C(=O)COC(=O)c1ccccc1` [Example 14], the “S, solubility in water” value in series [4] stood at 80 µg/mL. As to `COC(=O)Cc1ccc(C(=O)c2ccc(C)cc2)n1C` [Tolmetin methyl ester, reference compound], the half-life in series [1] (80% plasma) is 1140 min.

Take `CC(C)Cc1ccc(C(C)C(=O)OCC(=O)N(C)CC(=O)NCN2CCOCC2)cc1` (stereo not drawn) [Example 51, 2-[α-METHYL-4-(2-METHYLPROPYL)BENZENEACETYLOXY]-(N-METHYL-N-(N'-MORPHOLINOMETHYLCARBAMOYL)METHYL)ACETAMIDE HYDROCHLORIDE]: the half-life in series [1] (plasma) came out at 10.8 min. Take `CCN(CC)C(=O)COC(=O)c1ccccc1Nc1cccc(Cl)c1C` [Example 66]: the half-life in series [1] (80% plasma) and in series [1] (plasma) was 5 min each time. On to `COC(=O)[C@H]1CC[C@H](CN)CC1` [Tranexamic acid methyl ester, reference compound], for which the half-life in series [1] (80% plasma) is greater than 180 min. Turning to `CCN(CCO)C(=O)COC(=O)c1ccccc1Nc1cccc(Cl)c1C` [Example 67], the half-life in series [1] (plasma) is 3 min. In series [1] (plasma), `CC(C(=O)OCC(=O)N(C)C)c1ccc(-c2ccccc2)c(F)c1` (stereo not shown) [Example 58] yielded a half-life of 10.8 min.

In the case of `C=CCN(CC=C)C(=O)COC(=O)c1ccccc1` [Example 13], the “log P” value turned out to be 2.34. Further, the “S, solubility in water” value in series [4] was found to be 710 µg/mL. In addition, in series [1] (50% plasma), the half-life is 0.08 min. With `CCOC(=O)c1ccc(N)cc1` [4-Aminobenzoic acid ethyl ester, reference compound], in series [1] (80% plasma), the half-life was greater than 6000 min. For `COc1ccc2cc([C@H](C)C(=O)OCC(=O)N(C)CC(N)=O)ccc2c1` [Example 53], the half-life in series [1] (plasma) is 2.5 min.

In the case of `CN(C)C(=O)COC(=O)c1ccccc1O` [Example 79], the half-life in series [1] (plasma) stood at 0.08 min. Take `CCOC(=O)[C@@H](N)Cc1ccc(O)cc1` [L-Tyrosine ethyl ester, reference compound]: the half-life in series [1] (80% plasma) was determined as 59 min. In the case of `CN(CC(N)=O)C(=O)COC(=O)Cc1ccc(-c2ccccc2)cc1` [Example 57], the half-life in series [1] (plasma) amounted to 2.1 min. In the case of `CC(C)CN(CC(C)C)C(=O)COC(=O)c1ccccc1` [Example 15], in series [1] (50% plasma), the half-life was less than 1.5 min. In series [2], this molecule came in with a solubility of 81 µg/mL (≈ 0.278 mM). For `CN1CCN(C(=O)COC(=O)c2ccccc2)CC1`, the half-life in series [1] (50% plasma) was found to be 12.7 min. The molecule also gave a solubility in series [2] greater than 100000 µg/mL.

Consider `O=C(OCC(=O)N(CCO)CCO)c1ccccc1` [Example 17, 2-(benzoyloxy)-N-N-(di-β-hydroxyethyl)acetamide], for which the “S, solubility in water” value in series [4] is 720000 µg/mL. Moreover, the solubility in series [2] is greater than 700000 µg/mL.
